According to US10787437B2, “Processes for the preparation of pyrazole derivatives useful as modulators of the 5-HT2A serotonin receptor” (Arena Pharmaceuticals, Inc., priority 2008, dated 2020):

Assays:
[1] = system: healthy adults; assay: Phase 1 trials, waking EEG; format: in vivo, human
[2] = system: normal volunteers; assay: Afternoon nap model of insomnia in normal volunteers; format: in vivo, human
Source text: APD125, a potent and selective 5-HT2A serotonin receptor inverse agonist is a member of the genus disclosed in the European Patent EP1558582. […] Sleep onset latency was not decreased by APD125. In the afternoon nap model, APD125 decreased microarousals, the number of sleep stage shifts, and number of awakenings after sleep onset.

[3] = system: insomnia patients; assay: Phase 2 trial, measurements of sleep maintenance versus placebo; format: in vivo, human
Source text: The data from the APD125 Phase 2 study are consistent with Phase 1 data and support further development of APD125 for the treatment of insomnia patients who have difficulty maintaining sleep.

[4] = system: diabetic rats; conditions: cited from earlier work
[5] = system: DOCA-salt induced hypertension; conditions: rats; cited from earlier work
[6] = system: JC virus; conditions: cited from earlier work
[7] = system: heatstroke; conditions: in vivo; cited from earlier work
[8] = system: spontaneously hypertensive rats; conditions: cited from earlier work
[9] = system: glaucoma patients; conditions: cited from earlier work
[10] = target: 5-HT2A (Homo sapiens, UniProt P28223); conditions: cited from earlier work
Sequence of 5-HT2A (P28223 whole entry, species assumed): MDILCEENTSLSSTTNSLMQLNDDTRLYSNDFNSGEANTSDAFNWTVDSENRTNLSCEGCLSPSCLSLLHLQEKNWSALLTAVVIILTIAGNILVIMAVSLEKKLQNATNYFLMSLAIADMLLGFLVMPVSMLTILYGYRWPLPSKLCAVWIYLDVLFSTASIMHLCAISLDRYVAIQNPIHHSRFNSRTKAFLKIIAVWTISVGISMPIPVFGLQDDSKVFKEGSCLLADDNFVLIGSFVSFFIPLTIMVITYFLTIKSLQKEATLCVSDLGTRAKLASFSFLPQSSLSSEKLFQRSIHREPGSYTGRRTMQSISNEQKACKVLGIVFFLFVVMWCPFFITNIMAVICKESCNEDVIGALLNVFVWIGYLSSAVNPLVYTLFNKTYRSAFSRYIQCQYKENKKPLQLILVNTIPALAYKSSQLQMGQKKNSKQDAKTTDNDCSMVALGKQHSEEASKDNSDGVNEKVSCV

[11] = system: lumbar disc herniation; conditions: humans; cited from earlier work
[12] = system: inflammatory pain; conditions: rats, intrathecal or intraperitoneal administration; cited from earlier work
[13] = system: diabetic nephropathy; conditions: 24 months of treatment; cited from earlier work
[14] = system: thermal induced pain; conditions: rats, intraperitoneal administration; cited from earlier work

In the case of `COc1ccc(NC(=O)Nc2ccc(F)cc2F)cc1-c1c(Br)cnn1C` [APD125], the “dose of maximal vigilance-lowering effects on waking EEG” value [1] is reported as 40 to 80 mg, the “effects on waking EEG” value [1] is reported as “vigilance-lowering effects on waking EEG” and the “time of peak effects after dosing” value ([1]; after dosing) is reported as 2 to 4 h. For the same compound, the REM sleep ([2]; afternoon nap model) was “at the expense of REM sleep”, the microarousals ([2]; afternoon nap model) was “decreased” and the “number of awakenings after sleep onset” value ([2]; afternoon nap model) was “decreased”. The “number of sleep stage shifts” value ([2]; afternoon nap model) was “decreased”, the sleep onset latency ([2]; afternoon nap model) was “not decreased” and the “slow wave sleep and associated parameters” value ([2]; primarily during the early part of sleep) was “increased slow wave sleep and associated parameters in a dose-dependent manner”. The “next day cognitive effects” value ([3]; Phase 2) was “without any limiting next day cognitive effects” and the “measurements of sleep maintenance” value ([3]; Phase 2, compared to placebo) was “statistically significant improvements”.
In the case of `O=CN1CCC(C(=O)NCCN2CCC(=C3c4ccccc4C=Cc4ccccc43)CC2)CC1` [AT-1015], the “14.9% reduction in saphenous sensory conduction velocity” value (“14.9% reduction” for short) [4] is given as “completely reversed” and the “44.7% reduction in sciatic endoneurial blood flow” value (from here on “44.7% reduction”) [4] is given as “completely reversed”.
In the case of `CN1CCN2c3ccccc3Cc3ccccc3C2C1` (stereo not drawn) [Mainserin], the DOCA-salt induced hypertension [5] is given as “prevent”.
For `O=C(c1ccc(F)cc1)C1CCN(CCn2c(=O)[nH]c3ccccc3c2=O)CC1` [ketanserin], the “JC virus infection of human glial cells” value [6] is given as “inhibited”, the protection during heatstroke [7] is given as “protect against circulatory shocks, intracranial hypertension, and cerebral ischemia” and the blood pressure [8] is given as “stabilize blood pressure”. The IOP [9] was “significantly lower” and the “inverse agonist activity at 5-HT2A” value [10] was “have inverse agonist activity”.
For `Cc1nc2sccn2c(=O)c1CCN1CCC(=C(c2ccc(F)cc2)c2ccc(F)cc2)CC1` [ritanserin], the “JC virus infection of human glial cells” value [6] is given as “inhibited”, the “14.9% reduction” value [4] is given as “completely reversed” and the “44.7% reduction” value [4] is given as “completely reversed”. For the same compound, the “inverse agonist activity at 5-HT2A” value [10] was “have inverse agonist activity”.
In the case of `COc1cccc(CCc2ccccc2OCC(CN(C)C)OC(=O)CCC(=O)O)c1` (stereo not drawn) [sarpogrelate], the “lower back pain, leg pain and numbness associated with sciatica” value [11] is given as “effective treatment”, the “analgesic effect on inflammatory pain” value [12] is given as “significant analgesic effect” and the “urinary albumin excretion level” value [13] is given as “significantly reduced”. The IOP [9] was “significantly lower”, the “14.9% reduction” value [4] was “completely reversed” and the “44.7% reduction” value [4] was “completely reversed”. For the same compound, the “analgesic effect on thermal induced pain” value [14] was “significant analgesic effect”.
